Structures can show the parent of a compound that is named as a salt. Where two headings read alike, the source gives them in different places.
Legend:
[1] = target: receptors for benzodiazepines; assay: Affinity for receptors for benzodiazepines (inhibition of specific bonding of ^3 H diazepam); assay type: binding; conditions: ^3 H diazepam 10^-9 M, rat cortex, pH of 7.4
Experimental: The test was inspired by Mohler et al. [Science, No. 198 (1977), p. 849-851] and one part of the cortex removed from the brains of males rats weighing an average of […] per 20 parts by volume of 0.32 M of sucrose solution was homogenized. After centrifugation at 1000 g of the homogenized mixture at 0° C. for 10 minutes, the surnagent was centrifuged at 30,000 g at 4° C. for 20 minutes and the culot was suspended in 20 volumes of buffered 50 mM. Tris HCl with a pH of 7.4. The suspension was centrifuged at 30,000 g for 20 minutes at 4° C. and the new culot was suspended in 50 ml of buffered Krebs Tris HCl with a pH of 7.4. Following incubation at 0° C. for 30 minutes, 2 ml of the suspension in the presence of ^3 H diazepam at a concentration of 10^-9 M alone and with increasing concentrations of the test product to determine non-specific fixation with non-radioactive diazepam at a concentration of 10^-6 M.
The incubated suspension were filtered through a Whatman GF/C filter and the filters were washed twice at 0° C. with 5 ml of buffered krebs. Tris HCl with a pH of 7.4. The radioactivity of the filter was measured by liquid scintillation and the activity of the product was expressed in I.C.50 or the concentration which inhibits by 50% the specific bonding of ^3 H diazepam determined graphically.

Acute toxicity = assay type: in vivo; conditions: oral, mice
[2] = Anxiolytic activity (electric shock test, Apelab apparatus, Boissier et al); assay type: in vivo, mice; conditions: oral; for ED (maximum): Mus musculus, 0.5 h, 30 minutes before the test, groups of 10 mice, shocks over one minute, read-out: oral dose at which the number of delivered shocks increased to the maximum; for anxiolytic activity (in words): mice
Experimental: The Apelab apparatus and protocol used by Boissier et al [European J. Pharmacol., Vol. 4 (1968), p. 145] were used to determine the anxiolytic activity and 4 plates were connected to a stimulator (U. Sachs, Roucaire) which delivered electric shocks of 120 volts for 0.5 seconds. The test was effected on groups of 10 mice who had orally received the test compound 30 minutes before the test. Each animal was individually placed on the apparatus and after 15 seconds of free exploration, it was subjected to an electric shock each time as it passed from plate to another, a minimum of 3 seconds being observed between 2 shocks. The number of delivered shocks was determined over one minute and the obtained results were compared to those observed on control animals by the Dunnett test.

[3] = test system: plasmatic corticosterone level; assay: Action against stress caused by noise by plasmatic corticosterone level; assay type: in vivo; conditions: Rattus norvegicus; oral; groups of 5 rats fasted 24 hours; noise stress one hour later; read-out: DE50 (oral dose which reduced by 50% the level of corticosterone)
Experimental: The test was effected on groups of 5 rats fasted for 24 hours receiving orally the test compound between 8 and 9 in the morning. One hour later, stress was applied to the animals by placing them in a cage with a noisily operated radio adjacent thereto. 30 minutes later, they received an intraperitonal prick and 10 minutes later, the animals were anesthesized with halothane. 3 ml blood samples were taken after decapitation and the seric levels of corticosterone were determined by a radio-immunological method. Counts were taken of the importance in the male rat of seric concentrations of corticosterone to determine directly without previous extraction of the hormone with 0.1 ml of the sample diluted to 1 to 100. To the test sample were added in hemolysis tubes (12×65 mm) 0.1 ml of an aqueous solution of ^3 H-- corticosterone (5000 spm) and 0.5 ml of buffered phosphate solution (0.02 M; pH of 6.9) containing 0.02% of gelatine and 0.02% of sodium nitride containing a suspension of anticorticosterone antiserum (dilution 1/300,000), sheep antiserum anti γ-globuline of rabbit (dilution of 1/50) and normal serum of rabbit treated with Dextran carbon (dilution 1/500).
The volume was adjusted to 1 ml and the mixture was incubated overnight at 4° C. The mixture was centrifuged at 3000 t/mn for 20 minutes and the surnageant was discarded. The radioactivity contained in the precipitate was measured by a counter after addition of 2 ml of scintillation liquid containing 5% of Soluene 350. The concentration of corticosterone was determined with a standard curve (0-4000 pg) established under the treatment conditions of the samples. The individual seric level of corticosterone expressed in μg/100 ml was determined as the average of 3 tests and the results were compared by the Student test to those obtained in control animals not subjected to stress. The results expressed as DE50 on the oral dose which reduced by 50% the level of corticosterone in the treated animals is reported in Table III.

[4] = derivative of French Pat. No. 2,340,735; cited from earlier work
[5] = derivative of French Pat. No. 2,340,735; cited from earlier work; remark: listed apart in the source

Row | Compound | IC50 [1] [nM] | DL0 (maximum dose which did not cause any mortality after 8 days) (Acute toxicity) [mg/kg] | ED (maximum) [2] [mg/kg] | anxiolytic activity (in words) [2] | ED50 [3] [mg/kg] | analgesic activity (in words) [4] | anxiolytic activity (in words) [5]
1 | O=C(NC1=NCCS1)c1cnc2ccc(F)cc2c1O [Example 7, N-(4,5-dihydro-thiazol-2-yl)-6-fluoro-4-hydroxy-3-quinoline-carboxamide hydrochloride] | 1.3 |  |  |  |  |  | 
2 | O=C(NC1=NCCS1)c1cnc2cc(Cl)ccc2c1O [Example 5, N-(4,5-dihydro-thiazol-2-yl)-7-chloro-4-hydroxy-3-quinoline-carboxamide hydrochloride] | 0.9 | > 1000 |  |  |  |  | 
3 | Cl.O=C(NC1=NCCS1)c1cnc2ccccc2c1O [Example 1, N-(4,5-dihydro-thiazol-2-yl)-4-hydroxy-3-quinoline-carboxamide hydrochloride] | 0.5 | > 400 | 10 | good anxoilytic activity | 10 |  | 
4 | Cc1ccc2ncc(C(=O)NC3=NCCS3)c(O)c2c1 [Example 3, N-(4,5-dihydro-thiazol-2-yl)-6-methyl-4-hydroxy-3-quinoline-carboxamide hydrochloride] | 1.5 |  |  |  |  |  | 
5 | O=C(NC1=NCCS1)c1cnc2ccc(Cl)cc2c1O [Example 6, N-(4,5-dihydro-thiazol-2-yl)-6-chloro-4-hydroxy-3-quinoline-carboxamide hydrochloride] | 1 | > 400 | 50 | good anxoilytic activity | 50 |  | 
6 | O=C(NC1=NCCS1)c1cnc2c(C(F)(F)F)cccc2c1O |  |  |  |  |  | has analgesic activity | devoid of anxiolytic activity
7 | COc1ccc2c(O)c(C(=O)NC3=NCCS3)cnc2c1 [Example 8, N-(4,5-dihydro-thiazol-2-yl)-7-methoxy-4-hydroxy-3-quinoline-carboxamide hydrochloride] | 1.2 | > 400 | 20 | good anxoilytic activity |  |  | 
8 | CCc1ccc2ncc(C(=O)NC3=NCCS3)c(O)c2c1.Cl [Example 2, N-(4,5-dihydro-thiazol-2-yl)-6-ethyl-4-hydroxy-3-quinoline-carboxamide hydrochloride] | 0.3 | > 400 | 20 | good anxoilytic activity | 15 |  | 
9 | CC(C)c1ccc2ncc(C(=O)NC3=NCCS3)c(O)c2c1 [Example 4, N-(4,5-dihydro-thiazol-2-yl)-6-isopropyl-4-hydroxy-3-quinoline-carboxamidehydrochloride] | 2.2 | > 1000 | 20 | good anxoilytic activity | 50 |  | 
10 | Cc1nc2ccccc2c(O)c1C(=O)NC1=NCCS1 [Example 9, N-(4,5-dihydro-thiazol-2-yl)-2-methyl-4-hydroxy-3-quinoline-carboxamide hydrochloride] | 2.6 | > 1000 | 10 | good anxoilytic activity | 10 |  | 

— US4450166A, “N-(4,5-Dihydro-thiazol-2-yl)-3-quinoline-carboxamides having anxiolytic activity” (Roussel Uclaf, priority 1981, dated 1984)
